# Literature values in patent US20240139123A1, “COMPOSITIONS AND METHODS FOR IMPROVING BRAIN FUNCTION” (Health Via Modern Nutrition Inc., priority 2021, published 2024).
# Columns and labels:
# [1] = rats, diet supplemented as 30% of calories
# [2] = patient with Alzheimer's disease dementia, 20-month oral administration
# [3] = animal models
# NF-κB activation = conditions: in vitro
# [4] = animal and in vitro studies
# [5] = Schizophrenia-like rat model
smiles,measurement,setting,value
C[C@@H](O)CCOC(=O)C[C@@H](C)O [(R)-3-hydroxyburyl (R)-3-hydroxybutyrate],cognitive and physical performance,[1],improved cognitive and physical performance
C[C@@H](O)CCOC(=O)C[C@@H](C)O [ketone monoester],"mood, affect, self-care, cognitive and daily activity performance",[2],"improved markedly in mood, affect, self-care, and cognitive and daily activity performance"
"C=C(C)[C@@H]1CCC(C)=C[C@H]1c1c(O)cc(CCCCC)cc1O [CBD, cannabidiol]",anti-anxiety and antidepressant effects,[3],exhibited an anti-anxiety and antidepressant effects
same,NF-κB activation,NF-κB activation,inhibits
same,reactive oxygen species (ROS) production by mitochondria,NF-κB activation,inhibits
same,anti-inflammatory properties,[4],strong anti-inflammatory properties
same,cognitive impairment and cortical transcriptional changes,[5],improve cognitive impairment and reverse cortical transcriptional changes
